# Reference: US4474945A, “Anthracycline antibiotics” (priority 1981, dated 1984)
# Where two headings read alike, the source gives them in different places.
# Experiments:
# Mice = assay: Acute toxicity, mice, i.p.
# [1] = test system: mouse leukemia cells L1210; assay: Growth inhibition of cultured L1210 cells; assay type: cell-based; conditions: for IC50: Mus musculus; for inhibition of growth and nucleic acid synthesis of L1210 cells (in words): mouse leukemia cells L1210
# Protocol: For determination of the 50% growth inhibition concentration (IC50), 5×10^4 L1210 cells/ml (final concentration) were inoculated into RPMI 1640 medium (Rosewell Park Memorial Institutes 1640 medium) containing 20% calf serum. The anthracycline compounds of the present invention were added to give a final concentrations from 0.01 μg/ml to 0.25 μg/ml, while the control contained no drug. After incubation at 37° C. in a carbon dioxide incubator, the cell counts of the test and control cultures were measured for calculation of the IC50 concentration of antibiotic.
# [2] = test system: DNA synthesis in L1210 cells; assay: DNA synthesis inhibition in cultured L1210 cells (14C-thymidine incorporation); assay type: cell-based; conditions: Mus musculus, 1 h, 60 minutes, 10% calf serum, 37° C., read-out: 50% Inhibition concentration (IC50), DNA synthesis inhibition
# Protocol: (§1) Fifteen minutes after the anthracycline compounds of the present invention were added at varied concentrations, 0.05 μCi/ml (final concentration) of ^14 C-uridine or ^14 C-thymidine was added and cultivated at 37° C. for a further 60 minutes. The incorporation of the radioactive base was stopped by addition of 10% trichloroacetic acid. The acid-insoluble matters were recovered; washed three times with 10-5% trichloroacetic acid; and dissolved in formic acid.
# [3] = test system: RNA synthesis in L1210 cells; assay: RNA synthesis inhibition in cultured L1210 cells (14C-uridine incorporation); assay type: cell-based, mouse; conditions: for IC50: Mus musculus, 1 h, cultured L1210 cells, 14C-uridine, 60 minutes, 10% calf serum, 37° C., read-out: 50% Inhibition concentration (IC50), RNA synthesis inhibition
# Protocol: as §1
# L1210 leukemia = assay: Therapeutic effect (survival prolongation) on CDF1 mice bearing L1210 leukemia; assay type: in vivo, mouse (CDF1 mice); conditions: for Survival prolongation rate (T/C %): L1210-bearing CDF1 mice, i.p. every day for 10 days, control = 100; for survival prolongation effect (in words): mice transplanted with leukemia cells
# Protocol: The therapeutic effect of 2-hydroxyaclacinomycin B was studied on CDF1 mice bearing L1210 leukemia. From 24 hours after 1×10^5 L1210 cells/animal were intraperitoneally transplanted to CDF1 mice, 2-hydroxyaclacinomycin B was intraperitoneally given everyday for 10 days. The prolongation of the survival time was calculated relative to the control animals receiving physiological saline as 100. Table 1 compares the in vitro and in vivo activities and toxicities of 2-hydroxyaclacinomycins A, B, and N and aclacinomycin A.
# [4] = compared with aclacinomycin A; European Publication No. 30255; cited from earlier work
# [5] = cited from earlier work
# [6] = cultured L1210 cells, RPMI 1640 with 20% calf serum, 37° C., read-out: 50% Inhibition concentration (IC50), growth inhibition
Structure (SMILES),Toxicity (acute) (Mice),killing of mouse leukemia cells L1210 (in words) [1],"IC50 [1, 6] [µg/mL]",inhibition of growth and nucleic acid synthesis of L1210 cells (in words) [1],IC50 [2] [µg/mL],IC50 [3] [µg/mL],RNA synthesis versus DNA synthesis inhibition (in words) [3],Survival prolongation rate (T/C %) (L1210 leukemia; dose 0.63 mg/kg) [%],Survival prolongation rate (T/C %) (L1210 leukemia; dose 1.25 mg/kg) [%],Survival prolongation rate (T/C %) (L1210 leukemia; dose 2.5 mg/kg) [%],Survival prolongation rate (T/C %) (L1210 leukemia; dose 5 mg/kg) [%],Survival prolongation rate (T/C %) (L1210 leukemia; dose 7.5 mg/kg) [%],Survival prolongation rate (T/C %) (L1210 leukemia; dose 10 mg/kg),Survival prolongation rate (T/C %) (L1210 leukemia; dose 12 mg/kg) [%],survival prolongation effect (in words) (L1210 leukemia),antitumor activity (in words) [4],"cardio-toxicity (in words) ([5]; compared with aclacinomycin A, European Publication No. 30255)",toxicity and cardio-toxicity among hitherto-developed anthracycline antibiotics (in words) ([5]; compared with hitherto-developed anthracycline antibiotics),"IC50 ([1]; L1210, read-out: 50% Inhibition concentration (IC50), growth inhibition) [µg/mL]","antitumor activity (in words) (L1210 leukemia; mouse, in vivo)"
"CCC1(O)CC(OC2CC(N(C)C)C(OC3CC(O)C(OC4CCC(O)C(C)O4)C(C)O3)C(C)O2)c2c(cc3c(c2O)C(=O)c2c(O)cc(O)cc2C3=O)C1C(=O)OC (centres unmarked) [2-Hydroxyaclacinomycin N, 2-hydroxyaclacinomycin N]",45.7,kill mouse leukemia cells L1210 at a low concentration,0.04,markedly inhibit the growth and the nucleic acid synthesis,1.18,0.18,inhibit RNA synthesis more specifically than DNA synthesis,109,128,148,202,219,144%,108,excellent survival prolongation effect,–,–,–,–,–
CCC1(O)CC(OC2CC(N(C)C)C(OC3CC(O)C(OC4CCC(=O)C(C)O4)C(C)O3)C(C)O2)c2c(cc3c(c2O)C(=O)c2c(O)cc(O)cc2C3=O)C1C(=O)OC (centres unmarked) [2-Hydroxyaclacinomycin A],50.0,kill mouse leukemia cells L1210 at a low concentration,0.04,markedly inhibit the growth and the nucleic acid synthesis,0.85,0.14,inhibit RNA synthesis more specifically than DNA synthesis,124,148,176,218,220,158%,120,excellent survival prolongation effect,stronger antitumor activity,"less cardio-toxic, than aclacinomycin A",–,–,–
"CCC1(O)CC(OC2CC(N(C)C)C(OC3CC(O)C(OC4CCC(=O)C(C)O4)C(C)O3)C(C)O2)c2c(cc3c(c2O)C(=O)c2c(O)cccc2C3=O)C1C(=O)OC (centres unmarked) [Aclacinomycin A, reference compound]",22.6,–,0.01,–,0.3,0.04,–,107,125,186,196,123,Toxic,–,–,–,–,the least toxic and cardio-toxic among the hitherto-developed anthracycline antibiotics,–,–
"CCC1(O)CC(OC2CC(N(C)C)C(OC3CC4OC5CC(=O)C(C)OC5OC4C(C)O3)C(C)O2)c2c(cc3c(c2O)C(=O)c2c(O)cc(O)cc2C3=O)C1C(=O)OC (centres unmarked) [2-Hydroxyaclacinomycin B, 2-hydroxyaclacinomycin B]",50.0,kill mouse leukemia cells L1210 at a low concentration,–,markedly inhibit the growth and the nucleic acid synthesis,1,0.22,inhibit RNA synthesis more specifically than DNA synthesis,110,131,153,200,226,139%,113,excellent survival prolongation effect,–,–,–,0.03,marked antitumor activity
